Data taken from patent US8952024B2, “Herbicidal pyrimidone derivatives” (E I du Pont de Nemours and Company, priority 2009, dated 2015).

Key:
Assay type in all cases: in vivo
[1] = tested on: canarygrass (Phalaris minor); experiment: Test B postemergence plant response; details: for Canarygrass plant response rating (0 to 100 scale): 62 g ai/ha, postemergence, 0 is no effect, 100 is complete control; for Plant response rating, Canarygrass: Postemergence
In short: (§1)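 Plants grown in peat/vermiculite medium were sprayed postemergence at 2–18 cm height (1- to 4-leaf stage). After 13–15 days in the greenhouse, response was rated visually against untreated controls on a 0–100 scale (0 no effect, 100 complete control).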

[2] = tested on: winter barley (Hordeum vulgare); experiment: Test B postemergence plant response; details: for Barley plant response rating (0 to 100 scale): 62 g ai/ha, postemergence, 0 is no effect, 100 is complete control; for Plant response rating, Barley: Postemergence
In short: as §1

[3] = tested on: windgrass (Apera spica-venti); experiment: Test B postemergence plant response; details: for Windgrass plant response rating (0 to 100 scale): 62 g ai/ha, postemergence, 0 is no effect, 100 is complete control; for Plant response rating, Windgrass: Postemergence
In short: as §1

[4] = tested on: chickweed (Stellaria media); experiment: Test B postemergence plant response; details: for Chickweed plant response rating (0 to 100 scale): 62 g ai/ha, postemergence, 0 is no effect, 100 is complete control; for Plant response rating, Chickweed: Postemergence
In short: as §1

[5] = tested on: pigweed (Amaranthus retroflexus); experiment: Test B pre-/postemergence plant response; details: for Pigweed plant response rating (0 to 100 scale): 62 g ai/ha, postemergence, 0 is no effect, 100 is complete control; for Plant response rating, Pigweed: Postemergence
In short: (§2)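 Response scores were assigned visually after 13 to 15 days in a greenhouse, comparing treated pots with controls on a 0–100 scale where 100 denotes complete control. Preemergence treatments went onto freshly seeded loam/sand soil; postemergence treatments onto plants 2 to 18 cm tall.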

[6] = tested on: lambsquarters (Chenopodium album); experiment: Test B pre-/postemergence plant response; details: for Lambsquarters plant response rating (0 to 100 scale): 62 g ai/ha, postemergence, 0 is no effect, 100 is complete control; for Plant response rating, Lambsquarters: Postemergence
In short: as §2

[7] = tested on: wheat (Triticum aestivum); experiment: Test B pre-/postemergence plant response; details: for Wheat plant response rating (0 to 100 scale): 62 g ai/ha, postemergence, 0 is no effect, 100 is complete control; for Plant response rating, Wheat: Postemergence
In short: as §2

[8] = tested on: Italian ryegrass (Lolium multiflorum); experiment: Test B pre-/postemergence plant response; details: for Ryegrass, Italian plant response rating (0 to 100 scale): 62 g ai/ha, postemergence, 0 is no effect, 100 is complete control; for Plant response rating, Ryegrass, Italian: Postemergence
In short: as §2

[9] = tested on: ragweed (common ragweed, Ambrosia elatior); experiment: Test B pre-/postemergence plant response; details: for Ragweed plant response rating (0 to 100 scale): 62 g ai/ha, postemergence, 0 is no effect, 100 is complete control; for Plant response rating, Ragweed: Postemergence
In short: as §2

[10] = tested on: bermudagrass (Cynodon dactylon); experiment: Test B pre-/postemergence plant response; details: for Bermudagrass plant response rating (0 to 100 scale): 62 g ai/ha, postemergence, 0 is no effect, 100 is complete control; for Plant response rating, Bermudagrass: Postemergence
In short: as §2

[11] = 31 g ai/ha, 0 to 100 scale (0 no effect, 100 complete control)
[12] = 125 g ai/ha, scale 0 to 100 (0 no effect, 100 complete control)
[13] = 250 g ai/ha, scale 0 to 100 (0 no effect, 100 complete control), 13 to 15 days

Compound | Canarygrass plant response rating (0 to 100 scale) ([1]; 13 to 15 days) | Plant response rating, Canarygrass [1, 11] | Plant response rating, Canarygrass [1, 12] | Plant response rating, Canarygrass [1, 13] | Barley plant response rating (0 to 100 scale) ([2]; 13 to 15 days) | Plant response rating, Barley [2, 11] | Plant response rating, Barley [2, 12] | Plant response rating, Barley [2, 13] | Windgrass plant response rating (0 to 100 scale) ([3]; 13 to 15 days) | Plant response rating, Windgrass [3, 11] | Plant response rating, Windgrass [3, 12] | Plant response rating, Windgrass [3, 13] | Chickweed plant response rating (0 to 100 scale) ([4]; 13 to 15 days) | Plant response rating, Chickweed [4, 11] | Plant response rating, Chickweed [4, 12] | Plant response rating, Chickweed [4, 13] | Pigweed plant response rating (0 to 100 scale) ([5]; 13 to 15 days) | Plant response rating, Pigweed [5, 11] | Plant response rating, Pigweed [5, 12] | Plant response rating, Pigweed [5, 13] | further results
O=C1CCCC(O)=C1C(=O)c1cnc(-c2ccccc2)n(C2CCOCC2)c1=O [Compound 129] | 0 | 0 | 0 | 0 | 0 | 0 | 0 | 0 | 60 | 45 | 80 | 85 | 85 | 85 | 90 | 100 | 95 | 85 | 98 | 98 | Lambsquarters plant response rating (0 to 100 scale) ([6]; 13 to 15 days): 95; Plant response rating, Lambsquarters [6, 11]: 90; Plant response rating, Lambsquarters [6, 12]: 95; Plant response rating, Lambsquarters [6, 13]: 98; Wheat plant response rating (0 to 100 scale) ([7]; 13 to 15 days): 0; Plant response rating, Wheat [7, 11]: 0; Plant response rating, Wheat [7, 12]: 0; Plant response rating, Wheat [7, 13]: 0; Ryegrass, Italian plant response rating (0 to 100 scale) ([8]; 13 to 15 days): 0; Plant response rating, Ryegrass, Italian [8, 11]: 0; Plant response rating, Ryegrass, Italian [8, 12]: 0; Plant response rating, Ryegrass, Italian [8, 13]: 0; Ragweed plant response rating (0 to 100 scale) ([9]; 13 to 15 days): 95; Plant response rating, Ragweed [9, 11]: 90; Plant response rating, Ragweed [9, 12]: 95; Plant response rating, Ragweed [9, 13]: 95; Bermudagrass plant response rating (0 to 100 scale) ([10]; 13 to 15 days): 80; Plant response rating, Bermudagrass [10, 11]: 80; Plant response rating, Bermudagrass [10, 12]: 95; Plant response rating, Bermudagrass [10, 13]: 98
O=C1CCCC(O)=C1C(=O)c1cnc(-c2ccccc2)n(C2CCCCCC2)c1=O [Compound 130] | 20 | 5 | 20 | 25 | 0 | 0 | 0 | 0 | 65 | 60 | 75 | 85 | 98 | 98 | 100 | 100 | 98 | 95 | 100 | 100 | Lambsquarters plant response rating (0 to 100 scale) ([6]; 13 to 15 days): 100; Plant response rating, Lambsquarters [6, 11]: 98; Plant response rating, Lambsquarters [6, 12]: 100; Plant response rating, Lambsquarters [6, 13]: 100; Wheat plant response rating (0 to 100 scale) ([7]; 13 to 15 days): 5; Plant response rating, Wheat [7, 11]: 5; Plant response rating, Wheat [7, 12]: 5; Plant response rating, Wheat [7, 13]: 10; Ryegrass, Italian plant response rating (0 to 100 scale) ([8]; 13 to 15 days): 0; Plant response rating, Ryegrass, Italian [8, 11]: 0; Plant response rating, Ryegrass, Italian [8, 12]: 0; Plant response rating, Ryegrass, Italian [8, 13]: 5; Ragweed plant response rating (0 to 100 scale) ([9]; 13 to 15 days): 90; Plant response rating, Ragweed [9, 11]: 85; Plant response rating, Ragweed [9, 12]: 98; Plant response rating, Ragweed [9, 13]: 98; Bermudagrass plant response rating (0 to 100 scale) ([10]; 13 to 15 days): 90; Plant response rating, Bermudagrass [10, 11]: 75; Plant response rating, Bermudagrass [10, 12]: 90; Plant response rating, Bermudagrass [10, 13]: 95
